# In US9808433B2, “Combination of a centrally-acting analgesic and a selective cyclooxygenase-2 inhibitor anti-inflammatory agent for the treatment of inflammation and pain in the veterinary field” (FORMEVET S.R.L., priority 2010, dated 2017):
# Key:
# [1] = cited from earlier work
# [2] = tested on: inflammatory oedema of the CFA-injected hind paw; assay: Complete Freund adjuvant (CFA) induced paw inflammation (oedema) in the rat, plethysmometer; format: in vivo, Sprague-Dawley rats; conditions: for ml (inflamed paw/normal paw), intensity of oedema: day 3 after CFA, mean ± SD
# Method: An inflammation model extensively used and validated in the rat was used for the study.
# Sprague-Dawley rats weighing 200-250 grams were used. The animals were housed in groups of 4 to a cage, at the temperature of 22° C.±2° C., with a light-dark cycle of 12/12-hour and unlimited access to food and water. The animals were used after a week's acclimatisation in the housing facility. Each test group consisted of 8 rats.
# Inflammation was induced in one limb of the rat by administering a suspension of complete Freund adjuvant (CFA) containing 0.1 mg/0.1 ml of inactivated mycobacterium tuberculosis (H37Ra, ATCC 25177), in paraffin oil and mannide monooleate. The CFA was injected into the plantar surface of the left hind paw of the rat. This method induces reproducible inflammation characterised by oedema and pain.
# All the medicaments were administered 3 days after the inflammation was induced with CFA. The Firocoxib was resuspended in a carrier consisting of 0.5% methocel, and administered orally in the volume of 1 ml at the doses of 2.5 and 5 mg/Kg.
# The dose of 2.5 mg/Kg was combined with Tramadol at the dose of 4 mg/Kg. Tramadol dissolved in saline was administered by the intraperitoneal route (i.p., 0.2 ml/100 grams of weight) 30 minutes […] the Firocoxib. Inflammatory oedema was evaluated 1 hour after the Tramadol, corresponding to 90 minutes after the Firocoxib. […] The control animals were treated per os with the carrier, and i.p. with the same volume of saline.
# The intensity of the oedema was measured on day 3 after intraplantar administration of CFA, 90 minutes after Firocoxib, corresponding to 1 hour after i.p. administration of Tramadol. We chose to evaluate the oedema 3 days after it was induced, because it is largest at this time. The paw swelling (oedema) was evaluated by measuring the volume of both hind paws using a specific instrument, the plethysmometer (7150 plethysmometer, Basile, Comerio, Italy). The results are expressed as the algebraic difference between the volume in ml of the inflamed paw (injected with CFA) and the normal uninflamed paw: the greater the difference, the larger the oedema present.
# The values are the mean±SD of 8/10 rats.
# The significance of the anti-inflammatory activity was evaluated with the Analysis of Variance (ANOVA) test, followed by the Bonferroni multiple comparison test. ANOVA test is the most suitable statistical test when more than 2 treatment groups are present. It is a restrictive test because it takes account of the variability of all the trial groups.
# [3] = biological target: T1, COX-1 (Canis lupus familiaris, UniProt Q8HZR1); conditions: dog, low therapeutic doses; cited from earlier work
# T1 sequence (Q8HZR1 28-603): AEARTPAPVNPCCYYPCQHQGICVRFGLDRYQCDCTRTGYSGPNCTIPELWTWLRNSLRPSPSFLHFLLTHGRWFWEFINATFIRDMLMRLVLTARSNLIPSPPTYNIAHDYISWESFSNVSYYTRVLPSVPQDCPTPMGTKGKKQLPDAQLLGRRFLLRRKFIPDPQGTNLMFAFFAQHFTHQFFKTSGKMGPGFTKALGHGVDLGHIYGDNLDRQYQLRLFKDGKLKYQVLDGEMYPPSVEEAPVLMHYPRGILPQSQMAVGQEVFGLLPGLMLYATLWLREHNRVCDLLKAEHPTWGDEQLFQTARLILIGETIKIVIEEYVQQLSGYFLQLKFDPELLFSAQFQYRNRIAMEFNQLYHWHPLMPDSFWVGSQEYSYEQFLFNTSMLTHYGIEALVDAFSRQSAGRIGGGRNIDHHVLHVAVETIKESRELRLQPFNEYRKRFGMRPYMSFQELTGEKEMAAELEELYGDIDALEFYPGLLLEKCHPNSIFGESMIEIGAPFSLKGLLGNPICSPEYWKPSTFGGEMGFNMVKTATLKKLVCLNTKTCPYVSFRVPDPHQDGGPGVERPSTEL
Structure (SMILES),bond with plasma proteins ([1]; in vivo),elimination half-life ([1]; in vivo) [h],time to peak plasma concentration ([1]; in vivo) [h],"absorption after oral administration ([1]; oral, regardless of the formulation used)",anti-inflammatory effect (in words) ([2]; Tramadol 4 mg/kg alone),"ml (inflamed paw/normal paw), intensity of oedema ([2]; Tramadol 4 mg/kg i.p. alone, 60 min after Tramadol) [mL]",inhibition of COX-1 (in words) [3],anti-inflammatory effect (in words) ([2]; Firocoxib 2.5 mg/kg alone),"ml (inflamed paw/normal paw), intensity of oedema ([2]; Firocoxib 2.5 mg/kg p.o. alone, 90 min after Firocoxib) [mL]","ml (inflamed paw/normal paw), intensity of oedema ([2]; Firocoxib 5 mg/Kg p.o. alone, 90 min after Firocoxib, p < 0.01 vs saline) [mL]","inhibition at 5 mg/kg ([2]; Rattus norvegicus, Firocoxib 5.0 mg/kg alone) [%]"
COc1cccc(C2(O)CCCCC2CN(C)C)c1 (centres unmarked) [Tramadol],low,1.5 to 7,≤ 2,very good absorption,no anti-inflammatory effect,0.80 ± 0.06,–,–,–,–,–
CC1(C)OC(=O)C(OCC2CC2)=C1c1ccc(S(C)(=O)=O)cc1 [Firocoxib],–,–,–,–,–,–,do not significantly inhibit COX-1,completely lost its anti-inflammatory effect,0.83 ± 0.05,0.42 ± 0.08,~50
